Measurements from article PMC3878827, “Synthesis and biological characterisation of ^18F-SIG343 and ^18F-SIG353, novel and high selectivity σ2 radiotracers, for tumour imaging properties” (EJNMMI Research, 2013).
Where “and” joins values, the source holds several entries; their conditions need not be identical. Equal values may be shown once.

Key:
[1] = Metabolite studies (radio-TLC and radio-HPLC) in A375 tumour-bearing mice; format: in vivo; details: i.v., mean ± SD, n = 3
Protocol: The amount of intact ^18F-SIG343 and ^18F-SIG353 in the plasma, urine, tumour and brain cortex was quantified by thin layer chromatography (TLC) and radio-HPLC analysis. Mice were injected with 20 MBq of the radiotracer in 100 μL of saline. Mice were sacrificed 15, 60 and 120 min post injection of radiotracer. Whole organ samples of brain cortex and tumour samples (10 to 60 mg, minced) were added to unlabelled SIG343 or SIG353 (5 μL; 1 mg/mL), KF (5 μL; 1 mg/mL), MeCN (0.3 mL) and water (0.2 mL). Samples were exposed to an ultrasonic probe (Ultrasonic processor, Misonix Inc., Farmingdale, NY, USA) for 2 min before being centrifuged (5,000 rpm, 5 min). Plasma (50 μL) or urine (10 μL) samples were added to unlabelled SIG343 or SIG353, KF and 0.5 mL MeCN. Plasma samples were centrifuged (Heraeus Biofuge PrimoR, Thermo Fisher Scientific, Hudson, NH, USA; 5,000 rpm, 5 min), and the supernatant was removed and the radioactivity of the precipitated pellets was measured using a gamma counter to determine the extraction efficiency. If necessary, multiple extractions were performed to ensure maximum recovery of the radioactivity. An appropriate amount of the supernatant, based on the activity level (cpm), was collected (approximately 100 μL), diluted with water (up to 1.5 mL) for HPLC analysis or evaporated to dryness under vacuum for TLC analysis.
The TLC sample was reconstituted in methanol (25 to 50 μL) and mixed before being applied to the concentrating zone of the silica TLC plate. In a separate lane, the corresponding ^18F-labelled and ^19F-standard was also spotted. The TLC solvent systems of EtOAc/MeOH (70:30) were utilised for ^18F-SIG343 (rf 0.50) and ^18F-SIG353 (rf 0.55). The UV of the standard was identified using a UV lamp, while the movement and integration of the radioactive spots were visualised and measured using a phosphorimager (BAS 2500 Phosphorimager, Fujifilm, Tokyo, Japan) with Fujifilm Multigage 3.0 software. The intact radiotracer was identified as the radioactive spot containing the identical rf value to the corresponding ^19F-standard seen under the UV lamp. The integration of the active spot in relation to all the activity in the TLC lane gave the percentage of intact radiotracer.
Radio-HPLC analysis was performed following the method of Hilton et al.. A pre-column (Waters Oasis HLB, 25 μm, 20 × 3.9 mm) and a reversed phase HPLC column (Phenomenex Bondclone C18, 10 μm, 250 × 4.6 mm or Phenomenex Synergi Max-RP 80A C18, 4 μm, 250 × 4.6 mm) in series, with a switching valve between columns was utilised. The pre-column was washed with 1% acetonitrile in water for 3 min at 1.5 mL/min and then the solvent direction was switched to include the HPLC column. Both columns in series were then eluted over 10 min. The radioactivity peak corresponding to the authentic radiotracer was compared to the total activity registered in the radiochromatogram to give the fraction of unchanged radiotracer in the sample.

[2] = tested on: A375 (human amelanotic melanoma) cells; experiment: Cell uptake studies in A375 cells; format: cell-based
Protocol: A375 (human amelanotic melanoma) cells were purchased from American Type Culture Collection (Manassas, VA, USA) and cultured in RPMI-1640 medium (Sigma-Aldrich, St. Louis, MO, USA) supplemented with 10% foetal calf serum (Invitrogen, CA, USA) and 2 mM L-glutamine (Sigma). Cells were maintained in 175 cm^2 flasks in at 37°C in 5% CO2:95% atmosphere humidified incubator and grown to sub-confluent monolayers before being detached using trypsin for use in animal models.
In 24-well culture plates, 2.5 × 10^5 cells were seeded in complete medium and left to attach overnight. The following day, the number of cells per well was counted in triplicate. Before incubation with the radiotracer, the growth media was removed and the cells were washed once with warm PBS to remove all traces of growth media. ^18F-SIG343 or ^18F-SIG353 was formulated in warm PBS containing 0.1% Tween-80. Freshly prepared radiotracer (0.37 MBq in 500 μL) was added and the cells were incubated at 37°C for 2, 15, 30, 60 and 120 min. Uptake was terminated by removing the tracer solution and washing cells with ice-cold PBS. Subsequently, the cells were lysed with 500 μL of 0.2 N NaOH. The radioactivity in the cell lysate was measured with a Wallac 1480 γ-counter (PerkinElmer, MA, USA). The results were expressed as percentage of applied dose per 1 × 10^5 cells. All activities were corrected for decay. Optimal uptake time will be selected for inhibition cell uptake studies.

σ2 receptor = molecular target: T1, σ2 receptor (Mus musculus, UniProt Q8VD00); experiment: In vivo blocking studies in A375 tumour-bearing mice; design: species or system Balb/C nude mice; details: unlabelled SIG353-treated group, 1 mg/kg, 30 min p.i.
T1 construct: from tissue; host or cells: organs of Balb/C nude mice in vivo; tumour xenograft of A375 human amelanotic melanoma cells
T1 sequence (Q8VD00 1-176): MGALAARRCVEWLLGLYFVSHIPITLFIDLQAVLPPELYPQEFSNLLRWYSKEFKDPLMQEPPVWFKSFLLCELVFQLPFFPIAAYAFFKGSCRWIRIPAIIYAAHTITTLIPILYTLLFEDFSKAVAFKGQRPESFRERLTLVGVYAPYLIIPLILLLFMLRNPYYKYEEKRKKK
Protocol: Female Balb/C nude mice aged 5 to 6 weeks old were obtained from the Animal Resource Centre (Perth, Australia). The animals were kept at a constant temperature of 22°C ± 2°C on a 12/12 h light/dark cycle with lights on at 09:00 am. Food and water were freely available. After a week of acclimatisation, mice were injected subcutaneously in the left flank with 1 × 10^6 A375 human amelanotic melanoma cells, in 100 μL of Ca^2+/Mg^2+-free phosphate buffered saline. The procedure was performed without anaesthetic. For in vivo studies, A375 tumour-bearing mice were used 26 days after tumour inoculation.
Blocking studies were performed to investigate the specific uptake of the tracer via σ2 receptor mechanism. […] Control mice received saline only. Five minutes after injection of the blocking drug, ^18F-SIG343 or ^18F-SIG353 (1 MBq/100 μL of saline) was injected, and groups of mice (n = 5) were sacrificed 30 min post injection of the radiotracer. Organs were processed as described for the biodistribution study. Radioactivity concentrations in the organs in the treatment groups were compared to that measured in control mice.

[3] = declined after 60 min (up to 120 min)

SMILES | Unchanged form, Cortex ([1]; 15 min post injection) | Unchanged form, Plasma ([1]; 15 min post injection) | Unchanged form, Tumour ([1]; 15 min post injection) | Unchanged form, Urine ([1]; 15 min post injection) | Unchanged form, Cortex ([1]; 60 min post injection) | Unchanged form, Plasma ([1]; 60 min post injection) | Unchanged form, Tumour ([1]; 60 min post injection) | Unchanged form, Urine ([1]; 60 min post injection) | Unchanged form, Plasma ([1]; 120 min post injection) | Unchanged form, Urine ([1]; 120 min post injection) | Cell uptake, percentage of applied dose per 1 × 10^5 cells ([2]; after 2 min, 37°C) | Cell uptake, percentage of applied dose per 1 × 10^5 cells ([2]; between 15 and 60 min (peak/plateau)) | Cell uptake, percentage of applied dose per 1 × 10^5 cells [2, 3] | Increase (↑) of radiotracer uptake in pancreas versus control (σ2 receptor) | Unchanged form, Tumour ([1]; 120 min post injection)
COc1cc2c(cc1OC)CN(CCCCN1C(=O)c3ccc([18F])cc3C1=O)CC2 [^18F-SIG343] | 87 ± 3.2% | 49 ± 7.5% | 79 ± 4.6% | 13% and 13 ± 1.2% | 83 ± 0.8% | 23 ± 3.8% | 85 ± 3.1% | 15 ± 4.3% | 16 ± 2.8% | 11 ± 5.4% | approximately 2% | 2% | 1.6% | – | –
COc1cc2c(cc1OC)CN(CCCCCN1C(=O)c3ccc([18F])cc3C1=O)CC2 [^18F-SIG353] | 85% | 60 ± 3.0% | 81 ± 4.5% | 5% and 5 ± 1.3% | 87% | 27 ± 5.1% | 85 ± 2.4% | 4 ± 0.4% | 17 ± 2.9% | 5 ± 1.2% | approximately 2% | – | 2.3% | 37% | 65% and 65 ± 8.9%
